“And” between values parts separate entries of the source, which are not always exact repeats. Equal entries are not always repeated. Inconclusive results and toxic doses are left out. No stated cut-off is given here; in the data, active means T/C of 150% or more; inactive means T/C below 125%.
System: L1210 leukemia ip in BDF1 mice, survival T/C
Experiment: NCI In Vivo Anticancer Drug Screen. Data for tumor model L1210 Leukemia (intraperitoneal) in B6D2F1 (BDF1) mice
Conditions: endpoint: mean survival time, higher = longer survival
In short: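 Transplanted-tumor mice were given test agent; controls received vehicle only. Survival readings from the two groups were divided (treated over control).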

[1] = dose: 100.0 mg/kg/injection, schedule: Q01DX001 (ip), vehicle: carboxymethylcellulose (CMC)
[2] = dose: 100.0 mg/kg/injection, schedule: Q01DX009 (ip), vehicle: Klucel (hydroxypropylcellulose) (HPC)
[3] = dose: 100.0 mg/kg/injection, schedule: Q04DX002 (ip), vehicle: Klucel (hydroxypropylcellulose) (HPC)
[4] = dose: 200.0 mg/kg/injection, schedule: Q01DX009 (ip), vehicle: Klucel (hydroxypropylcellulose) (HPC)
[5] = dose: 200.0 mg/kg/injection, schedule: Q04DX002 (ip), vehicle: Klucel (hydroxypropylcellulose) (HPC)
[6] = dose: 400.0 mg/kg/injection, schedule: Q01DX001 (ip), vehicle: carboxymethylcellulose (CMC)
[7] = dose: 100.0 mg/kg/injection, schedule: Q01DX009 (ip), vehicle: saline with Tween-80
[8] = dose: 200.0 mg/kg/injection, schedule: Q01DX009 (ip), vehicle: saline with Tween-80
[9] = dose: 400.0 mg/kg/injection, schedule: Q01DX009 (ip), vehicle: saline with Tween-80
[10] = dose: 50.0 mg/kg/injection, schedule: Q01DX001 (ip), vehicle: saline
[11] = dose: 100.0 mg/kg/injection, schedule: Q01DX001 (ip), vehicle: saline
[12] = dose: 200.0 mg/kg/injection, schedule: Q01DX001 (ip), vehicle: saline
[13] = dose: 100.0 mg/kg/injection, schedule: Q01DX001 (ip), vehicle: Klucel (hydroxypropylcellulose) (HPC)
[14] = dose: 200.0 mg/kg/injection, schedule: Q01DX001 (ip), vehicle: Klucel (hydroxypropylcellulose) (HPC)
[15] = dose: 400.0 mg/kg/injection, schedule: Q01DX001 (ip), vehicle: Klucel (hydroxypropylcellulose) (HPC)
[16] = dose: 100.0 mg/kg/injection, schedule: Q04DX003 (ip), vehicle: Klucel (hydroxypropylcellulose) (HPC)
[17] = dose: 200.0 mg/kg/injection, schedule: Q04DX003 (ip), vehicle: Klucel (hydroxypropylcellulose) (HPC)
[18] = dose: 400.0 mg/kg/injection, schedule: Q01DX009 (ip), vehicle: Klucel (hydroxypropylcellulose) (HPC)
[19] = dose: 400.0 mg/kg/injection, schedule: Q04DX003 (ip), vehicle: Klucel (hydroxypropylcellulose) (HPC)
[20] = dose: 100.0 mg/kg/injection, schedule: Q01DX009 (ip), vehicle: saline
[21] = dose: 200.0 mg/kg/injection, schedule: Q01DX009 (ip), vehicle: saline
[22] = dose: 400.0 mg/kg/injection, schedule: Q01DX001 (ip), vehicle: saline

Measured: T/C

CCc1ccc(NC(=O)NCCCl)cc1
inactive: dose: 50.0 mg/kg/injection, schedule: Q01DX009 (ip), vehicle: Klucel (hydroxypropylcellulose) (HPC) 89 % of control | [1] 87 % of control | [2] 89 % of control | [3] 105 % of control | dose: 200.0 mg/kg/injection, schedule: Q01DX001 (ip), vehicle: carboxymethylcellulose (CMC) 106 % of control | [4] 92 % of control | [5] 113 % of control | [6] 106 % of control

C=CCN(CC=C)CCSC(=S)NCCOC
inactive: dose: 100.0 mg/kg/injection, schedule: Q01DX001 (ip), vehicle: acetone 100 % of control | dose: 100.0 mg/kg/injection, schedule: Q04DX003 (ip), vehicle: acetone 107 % of control | dose: 200.0 mg/kg/injection, schedule: Q01DX001 (ip), vehicle: acetone 97 % of control | dose: 200.0 mg/kg/injection, schedule: Q04DX003 (ip), vehicle: acetone 106 % of control | dose: 400.0 mg/kg/injection, schedule: Q01DX001 (ip), vehicle: acetone 90 % of control | dose: 400.0 mg/kg/injection, schedule: Q04DX003 (ip), vehicle: acetone 107 % of control

CC(=O)OC1CCC2(C)C(=CCC3C2CCC2(C)C(/C(C)=N/O)=CCC32)C1 (stereo unspecified)
inactive: [7] 96 % of control | [8] 100 % of control | [9] 91 % of control

Cn1c(=O)c2[nH]c(C3CCCC3)nc2n(C)c1=O
inactive: [10] 96 % of control | [11] 96 % of control | [12] 96 % of control

COc1ccc2c(c1OC)CCN1C3=C(CC(OC(=O)c4ccccc4)CC3)C(=O)CC21 (stereo unspecified)
inactive: [13] 96 % of control | dose: 100.0 mg/kg/injection, schedule: Q01DX009 (ip), vehicle: saline sonified 93 % of control | [14] 94 % of control | dose: 200.0 mg/kg/injection, schedule: Q01DX009 (ip), vehicle: saline sonified 95 % of control | [15] 97 % of control | dose: 400.0 mg/kg/injection, schedule: Q01DX009 (ip), vehicle: saline sonified 93 % of control

COC(=O)C1C(C(=O)OC)C2(Cl)C(Cl)=C(Cl)C1(Cl)C2(Br)Br (stereo unspecified)
inactive: [13] 101 % of control | [2] 104 % of control | [16] 104 % of control | [14] 104 % of control | [4] 101 % of control | [17] 100 % of control | [15] 97 % of control | [18] 97 % of control | [19] 104 % of control

O=S(=O)(c1ccccc1)C(Cl)c1cccc(Cl)c1 (stereo unspecified)
inactive: [3] 105 % of control | [5] 101 % of control | dose: 400.0 mg/kg/injection, schedule: Q04DX002 (ip), vehicle: Klucel (hydroxypropylcellulose) (HPC) 122 % of control

CC(=O)NC(C)(C)Cc1ccccc1
inactive: dose: 50.0 mg/kg/injection, schedule: Q01DX001 (ip), vehicle: carboxymethylcellulose (CMC) 89 % of control | [1] 94 % of control | [7] 111 % of control | [8] 101 % of control | [6] 94 % of control | [9] 86 % of control

Cc1cc2c([N+](=O)[O-])c3ccc(N4CCCCC4)nn3c2n[n+]1[O-]
inactive: dose: 31.3 mg/kg/injection, schedule: Q04DX002 (ip), vehicle: Klucel (hydroxypropylcellulose) (HPC) 95 % of control | dose: 62.5 mg/kg/injection, schedule: Q04DX002 (ip), vehicle: Klucel (hydroxypropylcellulose) (HPC) 111 % of control | dose: 125.0 mg/kg/injection, schedule: Q04DX002 (ip), vehicle: Klucel (hydroxypropylcellulose) (HPC) 122 % of control

C=COC(=O)NC(CCC(=O)OC)C(=O)O (stereo unspecified)
inactive: [11] 92 % of control | [12] 101 % of control

C/C(=N/Nc1c(F)c(F)c(-c2c(F)c(F)c(N/N=C(\C)c3ccccc3)c(F)c2F)c(F)c1F)c1ccccc1
inactive: dose: 25.6 mg/kg/injection, schedule: Q04DX002 (ip), vehicle: saline with Tween-80 95 % of control | dose: 64.0 mg/kg/injection, schedule: Q04DX002 (ip), vehicle: saline with Tween-80 92 % of control | dose: 160.0 mg/kg/injection, schedule: Q04DX002 (ip), vehicle: saline with Tween-80 89 % of control | dose: 400.0 mg/kg/injection, schedule: Q04DX002 (ip), vehicle: saline with Tween-80 92 % of control

OCC1(CO)CCCC2(COC3(CCCCC3)OC2)C1
inactive: [16] 98 % of control | [17] 94 % of control | [19] 94 % of control

N#CN1CCOCC1
inactive: dose: 44.0 mg/kg/injection, schedule: Q01DX Z (ip), vehicle: saline 101 % of control | dose: 66.0 mg/kg/injection, schedule: Q01DX Z (ip), vehicle: saline 91 % of control | [20] 97 % of control | dose: 100.0 mg/kg/injection, schedule: Q01DX Z (ip), vehicle: saline 101 % of control | dose: 100.0 mg/kg/injection, schedule: Q04DX003 (ip), vehicle: saline 95 % of control | [21] 103 % of control | dose: 200.0 mg/kg/injection, schedule: Q04DX003 (ip), vehicle: saline 105 % of control

COc1cccc(CNc2ccc(SC)cc2)c1OC
inactive: [2] 97 % of control | [16] 94 % of control | [4] 105 % of control | [17] 91 % of control | [18] 94 % of control | [19] 91 % of control

CC1(C)OB(C(Br)(B2OC(C)(C)C(C)(C)O2)B2OC(C)(C)C(C)(C)O2)OC1(C)C
inactive: [13] 100 % of control | [14] 100 % of control | [15] 108 % of control

O=C1C=CC(=O)N1CCc1ccccc1
inactive: dose: 3.0 mg/kg/injection, schedule: Q01DX009 (ip), vehicle: Klucel (hydroxypropylcellulose) (HPC) 106 % of control | dose: 5.0 mg/kg/injection, schedule: Q01DX009 (ip), vehicle: saline with Tween-80 91 % of control | dose: 6.0 mg/kg/injection, schedule: Q01DX009 (ip), vehicle: Klucel (hydroxypropylcellulose) (HPC) 95 % of control | dose: 10.0 mg/kg/injection, schedule: Q01DX009 (ip), vehicle: saline with Tween-80 87 % of control | dose: 12.0 mg/kg/injection, schedule: Q01DX009 (ip), vehicle: Klucel (hydroxypropylcellulose) (HPC) 103 % of control | dose: 12.5 mg/kg/injection, schedule: Q01DX009 (ip), vehicle: Klucel (hydroxypropylcellulose) (HPC) 97 % of control | dose: 20.0 mg/kg/injection, schedule: Q01DX009 (ip), vehicle: saline with Tween-80 101 % of control | dose: 20.0 mg/kg/injection, schedule: Q04DX003 (ip), vehicle: saline with Tween-80 95 % of control

ONc1ncnc2nc[nH]c12
inactive: dose: 7.5 mg/kg/injection, schedule: Q01DX009 (ip), vehicle: Klucel (hydroxypropylcellulose) (HPC) 121 % of control | dose: 15.0 mg/kg/injection, schedule: Q01DX009 (ip), vehicle: Klucel (hydroxypropylcellulose) (HPC) 119 % of control | dose: 30.0 mg/kg/injection, schedule: Q01DX009 (ip), vehicle: Klucel (hydroxypropylcellulose) (HPC) 117 % of control | dose: 50.0 mg/kg/injection, schedule: Q01DX009 (ip), vehicle: saline 114 % of control | dose: 60.0 mg/kg/injection, schedule: Q01DX009 (ip), vehicle: Klucel (hydroxypropylcellulose) (HPC) 121 % of control | [11] 110 % of control | [12] 112 % of control | [21] 114 % of control | [22] 114 % of control

C[N-]C.C[N-]C.[Cl][Pt+2][Cl]
inactive: [11] 113 % of control | [20] 100 % of control | [12] 107 % of control | [21] 88 % of control | [22] 119 % of control

O=C1Cc2ccccc2C(=O)N1Nc1ccccc1
inactive: dose: 22.0 mg/kg/injection, schedule: Q01DX001 (ip), vehicle: saline 96 % of control | dose: 33.0 mg/kg/injection, schedule: Q01DX001 (ip), vehicle: saline 91 % of control | [10] 93 % of control and 101 % of control | dose: 75.0 mg/kg/injection, schedule: Q01DX001 (ip), vehicle: saline 95 % of control | [11] 101 % of control | [12] 95 % of control | [22] 95 % of control

Reference: PubChem BioAssay AID248 (DTP/NCI, 2004)
